Results published in ChEMBL document CHEMBL3046732, “Synthesis and biological evaluation of new [1,3,4]thiadiazepino[7,6-b]quinolin-2-amines as potent anti-microbial agents” (2013).

How the values were obtained:
Staphylococcus aureus = test: Antimicrobial activity against Staphylococcus aureus assessed as growth inhibition by microdilution method
Aspergillus flavus = test: Antimicrobial activity against Aspergillus flavus assessed as growth inhibition by microdilution method; type: functional
Trichoderma reesei = test: Antimicrobial activity against Trichoderma reesei assessed as growth inhibition by microdilution method; type: functional
Escherichia coli = test: Antimicrobial activity against Escherichia coli assessed as growth inhibition by microdilution method
Alternaria alternata = test: Antimicrobial activity against Alternaria alternata assessed as growth inhibition by microdilution method; type: functional
Klebsiella aerogenes = test: Antimicrobial activity against Enterobacter aerogenes assessed as growth inhibition by microdilution method
Aspergillus niger = test: Antimicrobial activity against Aspergillus niger assessed as growth inhibition by microdilution method; type: functional
Salmonella typhimurium = test: Antimicrobial activity against Salmonella enterica subsp. enterica serovar Typhimurium assessed as growth inhibition by microdilution method
Bacillus subtilis = test: Antimicrobial activity against Bacillus subtilis assessed as growth inhibition by microdilution method
Curvularia australiensis = test: Antimicrobial activity against Curvularia australiensis assessed as growth inhibition by microdilution method; type: functional
Streptococcus pyogenes = test: Antimicrobial activity against Streptococcus pyogenes assessed as growth inhibition by microdilution method

| Structure (SMILES) | MIC (Staphylococcus aureus) | MIC (Aspergillus flavus) | MIC (Trichoderma reesei) | MIC (Escherichia coli) | MIC (Alternaria alternata) | MIC (Klebsiella aerogenes) | MIC (Aspergillus niger) | MIC (Salmonella typhimurium) | MIC (Bacillus subtilis) | MIC (Curvularia australiensis) | MIC (Streptococcus pyogenes) |
| --- | --- | --- | --- | --- | --- | --- | --- | --- | --- | --- | --- |
| COc1ccc2nc3c(cc2c1)C=NN=C(NCc1ccccc1)S3 | 1000 mg/L | 1000 mg/L | 500 mg/L | 1000 mg/L | 1000 mg/L | 125 mg/L | 1000 mg/L | 500 mg/L | 1000 mg/L | 1000 mg/L | 1000 mg/L |
| COc1ccc2nc3c(cc2c1)C=NN=C(Nc1ccccc1Cl)S3 | 1000 mg/L | 500 mg/L | 500 mg/L | 500 mg/L | 500 mg/L | 125 mg/L | 500 mg/L | 60 mg/L | 30 mg/L | 500 mg/L | 30 mg/L |
| Cc1ccc(NC2=NN=Cc3cc4cccc(C)c4nc3S2)c(C)c1 | 1000 mg/L | 500 mg/L | 250 mg/L | 1000 mg/L | 500 mg/L | 1000 mg/L | 1000 mg/L | 1000 mg/L | 1000 mg/L | 500 mg/L | 1000 mg/L |
| Cc1cccc2cc3c(nc12)SC(Nc1ccccc1)=NN=C3 | 1000 mg/L | 1000 mg/L | 500 mg/L | 1000 mg/L | 1000 mg/L | 1000 mg/L | 1000 mg/L | 1000 mg/L | 1000 mg/L | > 1000 mg/L | 1000 mg/L |
| Cc1ccc2nc3c(cc2c1)C=NN=C(Nc1ccc(Cl)cc1)S3 | 1000 mg/L | 1000 mg/L | 500 mg/L | > 1000 mg/L | 30 mg/L | 1000 mg/L | 500 mg/L | > 1000 mg/L | 1000 mg/L | 500 mg/L | > 1000 mg/L |
| Cc1ccc2nc3c(cc2c1)C=NN=C(NCCN1CCOCC1)S3 | 1000 mg/L | 500 mg/L | 250 mg/L | 500 mg/L | 500 mg/L | 1000 mg/L | 500 mg/L | 1000 mg/L | > 1000 mg/L | 500 mg/L | > 1000 mg/L |
| COc1ccc2nc3c(cc2c1)C=NN=C(Nc1ccc(C)cc1C)S3 | 1000 mg/L | 1000 mg/L | 500 mg/L | 500 mg/L | 250 mg/L | 1000 mg/L | 1000 mg/L | 500 mg/L | 1000 mg/L | 500 mg/L | 1000 mg/L |
| COc1ccc2nc3c(cc2c1)C=NN=C(Nc1c(C)cccc1C)S3 | 1000 mg/L | 500 mg/L | 500 mg/L | 500 mg/L | 1000 mg/L | 500 mg/L | 1000 mg/L | 500 mg/L | 1000 mg/L | 500 mg/L | 500 mg/L |
| Cc1cccc2cc3c(nc12)SC(NCCN1CCOCC1)=NN=C3 | 1000 mg/L | 250 mg/L | 250 mg/L | 1000 mg/L | 500 mg/L | 1000 mg/L | 500 mg/L | 1000 mg/L | 1000 mg/L | 500 mg/L | 1000 mg/L |
| CCc1ccc(NC2=NN=Cc3cc4cc(C)ccc4nc3S2)cc1 | > 1000 mg/L | 1000 mg/L | 500 mg/L | > 1000 mg/L | 500 mg/L | > 1000 mg/L | 500 mg/L | > 1000 mg/L | 1000 mg/L | 1000 mg/L | > 1000 mg/L |
| Cc1ccccc1NC1=NN=Cc2cc3cccc(C)c3nc2S1 | 1000 mg/L | 125 mg/L | 125 mg/L | 1000 mg/L | 1000 mg/L | 1000 mg/L | 500 mg/L | 1000 mg/L | 1000 mg/L | 500 mg/L | 1000 mg/L |
| Cc1ccc(NC2=NN=Cc3cc4cc(C)ccc4nc3S2)cc1 | > 1000 mg/L | 1000 mg/L | 500 mg/L | 1000 mg/L | 500 mg/L | 60 mg/L | 1000 mg/L | 60 mg/L | 1000 mg/L | 1000 mg/L | 1000 mg/L |
| Cc1cccc2cc3c(nc12)SC(Nc1cccc(Cl)c1)=NN=C3 | 1000 mg/L | 1000 mg/L | 1000 mg/L | 1000 mg/L | 500 mg/L | 1000 mg/L | 500 mg/L | 1000 mg/L | 1000 mg/L | 1000 mg/L | 1000 mg/L |
| Cc1ccc2nc3c(cc2c1)C=NN=C(Nc1cccc(Cl)c1)S3 | 1000 mg/L | 1000 mg/L | 500 mg/L | 1000 mg/L | 500 mg/L | 250 mg/L | 1000 mg/L | 1000 mg/L | 1000 mg/L | 1000 mg/L | > 1000 mg/L |
| Cc1ccc2nc3c(cc2c1)C=NN=C(Nc1ccccc1)S3 | 1000 mg/L | 500 mg/L | 500 mg/L | > 1000 mg/L | 1000 mg/L | 500 mg/L | 1000 mg/L | 500 mg/L | 1000 mg/L | > 1000 mg/L | 500 mg/L |
| Cc1ccc2nc3c(cc2c1)C=NN=C(NCc1ccccc1)S3 | 1000 mg/L | > 1000 mg/L | 500 mg/L | 1000 mg/L | 1000 mg/L | 1000 mg/L | 1000 mg/L | 1000 mg/L | 1000 mg/L | 1000 mg/L | 1000 mg/L |
| Cc1c(Cl)ccc2cc3c(nc12)SC(Nc1cccc(F)c1)=NN=C3 | 1000 mg/L | 1000 mg/L | 250 mg/L | 500 mg/L | 1000 mg/L | 500 mg/L | 1000 mg/L | 1000 mg/L | 60 mg/L | 1000 mg/L | 1000 mg/L |
| Cc1ccc(NC2=NN=Cc3cc4cccc(C)c4nc3S2)cc1 | 1000 mg/L | 500 mg/L | 500 mg/L | 1000 mg/L | 1000 mg/L | 1000 mg/L | 1000 mg/L | 1000 mg/L | 1000 mg/L | 1000 mg/L | 1000 mg/L |

The next molecules have a lower MIC (Staphylococcus aureus) than those just listed; values first:

| MIC (Staphylococcus aureus) | MIC (Aspergillus flavus) | MIC (Trichoderma reesei) | MIC (Escherichia coli) | MIC (Alternaria alternata) | MIC (Klebsiella aerogenes) | MIC (Aspergillus niger) | MIC (Salmonella typhimurium) | MIC (Bacillus subtilis) | MIC (Curvularia australiensis) | MIC (Streptococcus pyogenes) | Structure (SMILES) |
| --- | --- | --- | --- | --- | --- | --- | --- | --- | --- | --- | --- |
| 500 mg/L | > 1000 mg/L | 1000 mg/L | 1000 mg/L | 1000 mg/L | 60 mg/L | > 1000 mg/L | 1000 mg/L | 1000 mg/L | > 1000 mg/L | 1000 mg/L | Cc1ccc2nc3c(cc2c1)C=NN=C(Nc1ccccc1F)S3 |
| 500 mg/L | 1000 mg/L | 500 mg/L | 1000 mg/L | 500 mg/L | 1000 mg/L | 1000 mg/L | 500 mg/L | 1000 mg/L | 1000 mg/L | 500 mg/L | Cc1cccc2cc3c(nc12)SC(Nc1cccc(F)c1)=NN=C3 |
| 500 mg/L | 500 mg/L | 250 mg/L | 60 mg/L | 500 mg/L | 1000 mg/L | 500 mg/L | 1000 mg/L | 125 mg/L | 1000 mg/L | 125 mg/L | Cc1c(Cl)ccc2cc3c(nc12)SC(Nc1cccc(Cl)c1)=NN=C3 |
| 250 mg/L | 1000 mg/L | 1000 mg/L | 500 mg/L | 1000 mg/L | 250 mg/L | 1000 mg/L | 125 mg/L | 250 mg/L | 1000 mg/L | 250 mg/L | Cc1c(Cl)ccc2cc3c(nc12)SC(NCCN1CCOCC1)=NN=C3 |
| 500 mg/L | 1000 mg/L | 1000 mg/L | 500 mg/L | 500 mg/L | 500 mg/L | > 1000 mg/L | 500 mg/L | 250 mg/L | 500 mg/L | 500 mg/L | COc1ccc2nc3c(cc2c1)C=NN=C(Nc1ccc(C)cc1)S3 |
| 500 mg/L | 500 mg/L | 250 mg/L | 60 mg/L | 250 mg/L | 500 mg/L | 500 mg/L | 500 mg/L | 30 mg/L | 500 mg/L | 60 mg/L | Cc1ccc(NC2=NN=Cc3cc4ccc(Cl)c(C)c4nc3S2)c(C)c1 |
| 500 mg/L | 500 mg/L | 250 mg/L | 1000 mg/L | 125 mg/L | > 1000 mg/L | 500 mg/L | > 1000 mg/L | 1000 mg/L | 500 mg/L | 500 mg/L | COc1ccc2nc3c(cc2c1)C=NN=C(Nc1ccccc1F)S3 |
| 500 mg/L | 500 mg/L | 1000 mg/L | 500 mg/L | 1000 mg/L | 1000 mg/L | 1000 mg/L | 500 mg/L | 500 mg/L | 1000 mg/L | 500 mg/L | COc1ccc2nc3c(cc2c1)C=NN=C(NCCN1CCOCC1)S3 |
| 500 mg/L | 500 mg/L | 250 mg/L | 500 mg/L | 500 mg/L | 500 mg/L | 500 mg/L | 500 mg/L | 60 mg/L | 1000 mg/L | 60 mg/L | Cc1c(Cl)ccc2cc3c(nc12)SC(Nc1ccccc1F)=NN=C3 |
| 250 mg/L | > 1000 mg/L | 1000 mg/L | 500 mg/L | 1000 mg/L | 125 mg/L | 1000 mg/L | 250 mg/L | 250 mg/L | > 1000 mg/L | 500 mg/L | Cc1ccc2nc3c(cc2c1)C=NN=C(Nc1ccc(F)cc1)S3 |
